The text below walks through data of patent US20180303863A1, “Pharmaceutical Composition for Treating STK11-Mutation Cancer Using Cardiac Glycosides” (INDUSTRY-ACADEMIC COOPERATION FOUNDATION SOOKMYUNG WOMEN'S …, priority 2014, published 2018).

Molecules are shown by their SMILES.

For assay [1], the system named is STK11 mutant cell lines (NCI60 panel). In words: CLEA enrichment analysis of GI50 profiles on the NCI60 panel by STK11 genotype. The class given is cell-based. Conditions: MOLT-4, A549, NCI-H460, NCI-H23, SK-MEL-5, DU-145, FIG. 3A. The procedure:
To identify sensitivity patterns of the genotype-specific compounds, a subset of the compounds was selected using a GI50 profile pattern on a CLEA map.
First of all, a −logGI50 value of 8 (that is, GI50=0.01 μM) was chosen as a bipartite cutoff used to determine to which cell lines a compound was sensitive on a NCI60 panel. In this case, the compound was sensitive when the value is greater than 8, and was not sensitive when the value is less than 8.
Next, an enrichment score (an AUC value) was used to select the genotype-specific compounds in a CLEA assay.
An AUC value >80 and a P value <0.01 were used as cutoff values used to determine that a compound had significant sensitivity to certain genotypes. In this example, compounds showing strong potency (that is, a −logGI50 value of 8) to at least one cell line on the NCI60 panel were included.
As a result, a total of three non-overlapping compounds satisfying the above filtering requirements were compiled. Hierarchical clustering of these selected compounds was carried out on a category of STK11 genotypes. In this example, three main groups of compounds showing uniform sensitivity based on the mutant genotypes were identified. Such a cluster of compounds were sensitive to genetic mutations in an STK11 gene.

Assay [2] deals with STK11-mutant lung cancer cell lines (A549, H460, H1993, H1395) and STK11-wild-type lung cancer cell lines (H226, H322M, H82, H524). The experiment in a line: Cell viability (CellTiter-Blue) in STK11-mutant and STK11-wild-type lung cancer cell lines. Conditions: varying concentration, 72 hours; FIG. 5A. The class given is cell-based. The protocol: NCI-60 lung cancer cell lines (NCI-H460, A549, NCI-H322M, and NCI-H226) were obtained from the U.S. National Cancer Institute (NCI DTP). All cells were grown in an RPMI medium (GIBCO) supplemented with 10% FBS (GIBCO) and penicillin/[…] (GIBCO), and kept at 37° C. in a humidified atmosphere of 5% CO2.
A total of three cardiac glycosides (chemicals) having the structures shown in FIG. 1 were screened in a lung cancer cell line. Digoxin, ouabain, and digitoxin were all purchased from Sigma Aldrich.
(§1) The cells were seeded in 96-well plates at a density of 2,000, 1,000, and 200 cells per well, and cultured for 3, 7, and 14 days, respectively. After 24 hours of seeding, the cells were treated with a chemical diluted with digitoxin and ouabain at working concentrations of 0.05 μM and 0.02 μM, respectively. The cells were again cultured for 72 hours (3 days), 7 days, and 14 days, and then the cell viability was measured using a CellTiter-Blue assay kit.
For orientation: The colour change of resazurin is a common sign of viable cells or microbes.

Assay [3] relates to STK11-mutant cell line (A549) and cell line (A549-STK11) in which STK11 was restored into the wild type. In words: Cell viability (CellTiter-Blue) in A549 versus the STK11-restored A549-STK11 line. It counts as cell-based. Conditions: for inhibition of cell growth in lung cancer cell lines A549 and A549-STK11: 96-well plate; for response of the STK11-restored cell line compared to the STK11-mutant cell line (inhibition of cell growth, TiterBlue): FIG. 5B. The procedure: as §1
In this case, each of a STK11-mutant cell line (A549) and a cell line (A549-STK11) in which STK11 was restored into the wild type were used as the lung cancer cell line.

The test system of assay [4] is A549 lung cancer cell line. In words: Mouse tumor xenograft model, A549. The class given is in vivo, athymic nude mice. The protocol: (§2) After athymic nude mice (Oriental Bio Inc) were purchased, the animal model was prepared according to the standard guidelines provided by the Catholic University of Korea-Institutional Animal Care and Use Committee (CUK-IACUC). A549 or A549-LKB 1 wt were subcutaneously injected (3×10^6 cells/ml) into the above animal model, and divided into three groups: (1) an untreated control group (n=10); (2) a group in which the mice were treated with digoxin at 60 ng/kg/body weight (n=10); (3) a group in which the mice were treated with digoxin at 180 ng/kg/body weight (n=10). Digoxin or a vehicle (1.9% DMSO/10% polyethylene glycol 400/l×PBS: a total volume of 200 μl) was orally administered three times a week for 5 weeks. Then, the diameter of each tumor base was measured, and the size of a tumor was then calculated according to the following equation: Tumor size (mm^3)=(length×width×height×0.52). Also, the mice were monitored until the tumor size reached 1 cm^3, and then the mice were sacrificed, and tumors were extracted from the mice.

Assay [5] has as its system cell line (A549-LKB1wt) in which STK11 was restored into the wild type. The experiment in a line: Mouse tumor xenograft model, A549-LKB1wt (STK11 restored). The class given is in vivo, athymic nude mice. Conditions: oral, three times a week for 5 weeks, 60 or 180 ng/kg/body weight; FIG. 10B. The procedure:
as §2

On to `C[C@H]1O[C@@H](O[C@H]2[C@@H](O)C[C@H](O[C@H]3[C@@H](O)C[C@H](O[C@H]4CC[C@@]5(C)[C@H](CC[C@@H]6[C@@H]5CC[C@]5(C)[C@@H](C7=CC(=O)OC7)CC[C@]65O)C4)O[C@@H]3C)O[C@@H]2C)C[C@H](O)[C@@H]1O` [digitoxin], for which the “sensitivity (GI50 profile) in 6 cell lines with STK11 mutation potential” value (“sensitivity (GI50 profile)” for short) in assay [1] is “relatively high sensitivity”. Also, the “inhibition of cell growth, STK11-mutant compared to STK11-wild-type lung cancer cell lines” value in assay [2] is “specifically inhibited the cell growth”. In assay [3], the “inhibition of cell growth in lung cancer cell lines A549 and A549-STK11” value is on record as “the cell growth was inhibited”; the “response of the STK11-restored cell line compared to the STK11-mutant cell line (inhibition of cell growth, TiterBlue)” value was “resistant”.

As for `C[C@@H]1O[C@@H](O[C@H]2C[C@@H](O)[C@]3(CO)[C@H]4[C@H](O)C[C@]5(C)[C@@H](C6=CC(=O)OC6)CC[C@]5(O)[C@@H]4CC[C@]3(O)C2)[C@H](O)[C@H](O)[C@H]1O` [ouabain], the “sensitivity (GI50 profile)” value in assay [1] is listed as “relatively high sensitivity”. For the same compound, the “inhibition of cell growth, STK11-mutant compared to STK11-wild-type lung cancer cell lines” value in assay [2] is on record as “specifically inhibited the cell growth”. For the same compound, in assay [3], the “inhibition of cell growth in lung cancer cell lines A549 and A549-STK11” value is on record as “the cell growth was inhibited”; the “response of the STK11-restored cell line compared to the STK11-mutant cell line (inhibition of cell growth, TiterBlue)” value was “resistant”.

As for `C[C@H]1O[C@@H](O[C@H]2[C@@H](O)C[C@H](O[C@H]3[C@@H](O)C[C@H](O[C@H]4CC[C@@]5(C)[C@H](CC[C@@H]6[C@@H]5C[C@@H](O)[C@]5(C)[C@@H](C7=CC(=O)OC7)CC[C@]65O)C4)O[C@@H]3C)O[C@@H]2C)C[C@H](O)[C@@H]1O` [digoxin], the “sensitivity (GI50 profile)” value in assay [1] is reported as “relatively high sensitivity”. Also, the “inhibition of cell growth, STK11-mutant compared to STK11-wild-type lung cancer cell lines” value in assay [2] was “specifically inhibited the cell growth”. In assay [3], the “inhibition of cell growth in lung cancer cell lines A549 and A549-STK11” value is “the cell growth was inhibited”; the “response of the STK11-restored cell line compared to the STK11-mutant cell line (inhibition of cell growth, TiterBlue)” value is “resistant”. In addition, in assay [4] (FIGS. 10C, 10D, 10E), the “tumor growth in the STK11-mutant model compared to the wild-type STK11-expressing model” value is listed as “selectively reduced”. In assay [4] (oral, three times a week for 5 weeks, 60 or 180 ng/kg/body weight, FIG. 10A), the “growth of a tumor” value was “reduced in a time-dependent manner”. Moreover, the “growth of a tumor” value in assay [5] is on record as “did not have the same effect”.
